Results taken from patent US20240041878A1, “APELIN RECEPTOR MODULATORS FOR TREATMENT OF A DISORDER OR DISEASE ASSOCIATED WITH BBB PERMEABILITY” (BioAge Labs, Inc., priority 2022, published 2024).

Legend:
[1] = tested on: Mouse primary astrocytes; assay: Astrocyte glutamate uptake; type: cell-based; conditions: RAC+BGE-105 [10 nM, 50 nM, 250 nM] versus RAC
Procedure: To stimulate astrocytes into a reactive state found in aging and neurodegenerative diseases per previous publications (Liddelow et al., 2017; Barbar et al., 2020), a combination of the cytokines TNF-α and IL-1α, and complement factor C1q, were added at 30 ng/mL, 3 ng/mL, and 400 ng/mL, respectively, into astrocyte culture media to make 'reactive astrocyte cocktail' (RAC) media. […] Bachem, Cat. #4029110), BAY-11-7082 (50 μM; Abcam, Cat. #ab141228) or equal volume of vehicle (0.01% DMSO in PBS) (hereafter referred to as 'RAC treatment'). […] Fresh HBSS was added to each well and 100 μM glutamate (Sigma, Cat. #G1251) was added to each well. Empty wells not containing cells were filled with HBSS and 100 μM [NT] negative control. Cells were incubated at room temperature for 3 hours before HBSS was collected and glutamate concentration determined by colorimetric assay (Sigma, Cat. #MAK004). Relative change in glutamate uptake was calculated compared to negative control wells.

[2] = tested on: healthy volunteers aged 65 or older; assay: Phase 1b clinical trial, 10 days of bed rest; type: in vivo, human; conditions: infusions
Excerpt: The study described herein characterizes the effects of BGE-105 on immune biomarkers in human in a Phase 1b clinical trial directed to treatment of muscular atrophy. […] The double-blind, placebo-controlled trial evaluated the safety and pharmacodynamics of BGE-105. Twenty-one volunteers underwent 10 days of bed rest while receiving infusions of BGE-105 or placebo. Biological samples from treated and placebo groups were collected on Day 6 and Day 11.

[3] = tested on: rats; conditions: Ason et al., JCI Insight 2020; cited from earlier work
[4] = tested on: Mouse astrocyte cells; assay: Astrocyte gene expression (RT-PCR) after reactive astrocyte cocktail (RAC); type: cell-based
Procedure: Mouse astrocyte cells were seeded on 24-well plates at a low density of approximately 20 k astrocytes per well. To stimulate astrocytes into a reactive state found in aging and neurodegenerative diseases per previous publications (Liddelow et al., 2017; Barbar et al., 2020), a combination of the cytokines TNF-α and IL-1α, and complement factor C1q, were added at 30 ng/mL, 3 ng/mL, and 400 ng/mL, respectively, into astrocyte culture media to make 'reactive astrocyte cocktail' (RAC) media. […] Bachem, Cat. #4029110), BAY-11-7082 (50 μM; Abcam, Cat. #ab141228) or equal volume of vehicle (0.01% DMSO in PBS) (hereafter referred to as 'RAC treatment'). Cells in Groups 3-6 were treated with RAC for 24 hours, with or without the test compounds (n=4 per group). • Group 1: Control [CON] • Group 2: CON+BGE-105 (50 nM) [CON+105] • Group 3: Reactive control treated with RAC only [RAC] • Group 4: RAC+BGE-105 (50 nM) [RAC+105] • Group 5: RAC+Pyrm-Apelin-13 (50 nM) • Group 6: RAC+BAY-11-7082 (NF-κB inhibitor; 50 μM) [RAC+BAY] Media from each tested cell group was collected for cytokine release analysis. Cells were lysed for RNA collection and RT-PCR was performed to synthesis cDNA under standard conditions. Next, transcriptome analysis was performed to determine the expression level of astrocyte genes or astrocyte responsive genes. Changes of expression was normalized to β-actin (FIGS. 8 and 9). Exemplary biomarkers include CCL2, CXCL10, CXCL11, CXCL1, CXCL2, CXCL3, CXCL8, EDN1, […]3, CIS, CTRL, C3, CFB, VEGF, and IL-6.

[5] = tested on: NF-κB signaling pathway in astrocytes; assay: RT Profiler PCR Array, mouse NF-κB Signaling Targets, in astrocytes; type: cell-based; conditions: RAC+BGE-105 [250 nM]
Procedure: To stimulate astrocytes into a reactive state found in aging and neurodegenerative diseases per previous publications (Liddelow et al., 2017; Barbar et al., 2020), a combination of the cytokines TNF-α and IL-1α, and complement factor C1q, were added at 30 ng/mL, 3 ng/mL, and 400 ng/mL, respectively, into astrocyte culture media to make ‘reactive astrocyte cocktail’ (RAC) media. […] Bachem, Cat. #4029110), BAY-11-7082 (50 μM; Abcam, Cat. #ab141228) or equal volume of vehicle (0.01% DMSO in PBS) (hereafter referred to as ‘RAC treatment’). […] Total RNA purity and concentration was assessed using NanoDrop (ThermoFisher). 500 ng of RNA was used for cDNA synthesis using High-Capacity cDNA Reverse Transcription Kit (Fisher Scientific, Cat. #43-749-66) and total volume of cDNA was diluted to a final concentration of 2 ng/μ1. Gene expression was assessed using a RT Profiler PCR Array (Qiagen, Cat. #330231) specific to mouse NF-κB Signaling Targets according to manufacturer's protocol.

[6] = tested on: 26 month-old mice; assay: Quantikine ELISAs for mouse CXCL1 and CXCL13 in plasma of aged mice; type: in vivo; conditions: 50 mg/kg BID P.O. one week, p<0.05
Procedure: The mice were handled in accordance with principles and guidelines established by the “Guide for the Care and Use of Laboratory Animals” and overseen by the BioAge Lab's institutional animal care and use committee (IACUC). Mice were housed conventionally in a constant temperature (20-22° C.) and humidity (40%-60%) animal room with a 12/12 h light/dark cycle and free access to food and water. 26 month-old mice were randomized based on the body weight and body condition scores to two groups (vehicle or BGE-105, n=8). 4 month-old female mice were used as an additional control group (vehicle, n=4). Mice were administered P.O. vehicle or BGE-105 at 50 mg/kg (BID) for one week. After completion of dosing, blood samples were collected via retro-orbital bleeding under isoflurane anesthesia into K2-EDTA tubes to prevent coagulation. Mice were euthanized via transcardiac perfusion under isoflurane anesthesia. […]
For quantitative analysis, plasma samples were assessed with Quantikine® enzyme-linked immunosorbent assays (ELISAs) for mouse CXCL1 and CXCL13 (R&D Systems) according to manufacturer's instructions. Optical density of the completed ELISA was imaged using a SpectraMax iD5 (Molecular Devices), sample concentrations were calculated compared to a standard curve, and relative change with age+/−BGE-105 treatment was calculated with young mouse plasma serving as the normalization.

COc1cccc(OC)c1-n1c(NS(=O)(=O)[C@@H](C)[C@H](C)c2ncc(C)cn2)nnc1-c1cncc(C)c1 [BGE-105, (2S,3R)—N-(4-(2,6-dimethoxyphenyl)-5-(5-methyl-3-pyridinyl)-4H-1,2,4-triazol-3-yl)-3-(5-methyl-2-pyrimidinyl)-2-butanesulfonamide]
percentage of glutamate uptake in RAC astrocytes [1]: significantly and statistically increased | tolerability ([2]; 10 days of bed rest): well tolerated | muscle atrophy relative to placebo ([2]; 10 days of strict bed rest): statistically significant prevention | cardiovascular response [3]: induces a cardiovascular response | expression of biomarkers CXCL1, C3 and IL-6 in control astrocytes ([4]; CON+105, BGE-105 50 nM, no RAC): no or minimal impact | reduction of IL-6 gene expression in RAC-induced reactive astrocytes ([4]; RAC+105 (50 nM) versus RAC, 24 hours, p<0.0001): 5-10 fold | reduction of C3 gene expression in RAC-induced reactive astrocytes ([4]; RAC+105 (50 nM) versus RAC, 24 hours, p=0.0015): 10-20 fold | CXCL1 gene expression in RAC-induced reactive astrocytes ([4]; RAC+105 (50 nM) versus RAC, 24 hours, p=0.0204): significantly reduced | decrease of Cxcl3 expression [5]: 55% | increase of Csf3 expression [5]: 16% | increase of Il2 expression [5]: 184% | reduction of CXCL1 concentrations in plasma [6]: 35% | reduction of CXCL13 concentrations in plasma [6]: 26%
